The test system of this experiment is sfGFP^151(AXC). Description: Optimization of unnatural ribonucleotide triphosphate concentrations (sfGFP fluorescence and protein shift). In kind it is cell-based, E. coli. The procedure:
Examples 1A, 1B, and 2 identified dCNMO-dTPT3 as a competent UBP for the storage of information, and TAT1TP and NaMTP or 5FMTP as competent ribonucleoside triphosphates for its retrieval. Upon transformation with the same plasmids used above, 10 μM dTPT3TP and 25 μM dCNMOTP were provided in the growth media, which was then also supplemented with TAT1TP at concentrations ranging from 100 μM to 12.5 μM, and either NaMTP or 5FMTP at concentrations ranging from 200 μM to 12.5 μM, all in series of 2-fold dilutions, and after the addition of 1 mM AzK, the cells were induced to express sfGFP. […] In both cases, fluorescence was higher at lower concentrations of NaMTP or 5FMTP (due to increased production of contaminating natural sfGFP, see below). Additionally, cells generally produced higher fluorescence at higher concentrations of TAT1TP. […] Protein production was again quantified via the gel shift assay (FIG. 6C and FIG. 6D). Generally, as the concentration of NaMTP decreased below 200 μM, incrementally lower fidelity of AzK incorporation into sfGFP was observed, while with use of 5FMTP this reduction in fidelity was only observed below a concentration of 50 μM. Clearly lower concentrations of 5FMTP can be used without compromising fidelity. Cells provided with a high concentration of 5FMTP (≥50 µM) produced high protein shifts at all concentrations of TAT1TP explored (100 μM, 50 μM, 25 μM, or 12.5 μM).
Optimization of in vivo Translation Conditions. An overnight culture of the SSO strain ML2 carrying the pGEX-MbPylRS TetR plasmid was grown in 2×YT supplemented with 50 mM potassium phosphate, […] chloramphenicol and 100 μg/mL carbenicillin (herein referred to in this section as “media”), then diluted back to an OD600 of 0.03 in the same media and grown to an OD600 of 0.4-0.6. The culture was then chilled with shaking over ice-water for 15 min then pelleted by centrifugation at 3,200×g for 10 min. Cells were then resuspended and washed with ice-cold ddH2O twice then resuspended in ice-cold ddH2O to an OD600 of 55-65. The electrocompetent cells (50 μL) and ˜1 ng of Golden Gate assembled plasmid with the UBP within the sfGFP and tRNAPyl genes (see Golden Gate Assembly of Plasmids) were transferred to a pre-chilled electroporation cuvette (0.2-cm-gap), then electroporated (Gene Pulser II; Bio-Rad) according to manufacturer's recommendations (voltage […], capacitor 2.5 μF, resistor 200Ω), and then immediately diluted with 950 μL of media. […] The culture was monitored for cell growth (Envision 2103 Multilabel Plate Reader with a 590/20 nm filter) and then collected at an OD600˜1.0. […]

On to `COc1cc(C)c(F)cc1[C@@H]1O[C@H](COP(=O)(O)OP(=O)(O)OP(=O)(O)O)[C@@H](O)[C@H]1O` [Compound 5FMTP], for which, where the note is “5FMTP and TAT1TP pair”, the “Concentration for combined optimization of protein purity and yield” value amounted to 50 µM. Moreover, the “XTP concentration below which lower fidelity of AzK incorporation into sfGFP was observed” value (with TAT1TP 12.5-100 μM) turned out to be 50 µM.

The values above are taken from patent US11879145B2, “Reagents and methods for replication, transcription, and translation in semi-synthetic organisms” (The Scripps Research Institute, priority 2019, dated 2024).
